Data reported in ChEMBL document CHEMBL1201862, “PubChem BioAssay data set” (2004).
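Interpolation was linear, between the two tested concentrations surrounding the appropriate level; five concentrations were tested over 48 hours in 96-well plates. The concentration for 50% growth inhibition is given as GI50.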 Activity calls are given as the source filed them. Rule as the data show it: active = GI50 up to about 1.1 µM and inactive = higher.

What was measured:
Assay in all cases: inhibition of tumour cell growth, NCI panel, 48 h
[1] = test system: NCI-H460
[2] = test system: OVCAR-3
[3] = test system: HCT-15
[4] = test system: UACC-62
[5] = test system: SN12C
[6] = test system: M14
[7] = test system: MCF7
[8] = test system: HCT-116
[9] = test system: HL-60
[10] = test system: A498
[11] = test system: LOX IMVI
[12] = test system: COLO 205
[13] = test system: SNB-75
[14] = test system: SF-539
[15] = test system: MDA-N
[16] = test system: CAKI-1
[17] = test system: TK-10
[18] = test system: NCI-H226
[19] = test system: Hs-578T
[20] = test system: NCI-H23

| SMILES | GI50 [1] | GI50 [2] | GI50 [3] | GI50 [4] | GI50 [5] | GI50 [6] | GI50 [7] | GI50 [8] | GI50 [9] | GI50 [10] | GI50 [11] | GI50 [12] | GI50 [13] | GI50 [14] | GI50 [15] | GI50 [16] | GI50 [17] | GI50 [18] | GI50 [19] | GI50 [20] |
| --- | --- | --- | --- | --- | --- | --- | --- | --- | --- | --- | --- | --- | --- | --- | --- | --- | --- | --- | --- | --- |
| Cc1cc(S(=O)(=O)Nc2nc(N)n(-c3ccccc3)n2)c(S)cc1Cl | > 100 µM (inactive) | > 100 µM (inactive) | > 100 µM | > 100 µM (inactive) | > 100 µM (inactive) | > 100 µM (inactive) | > 100 µM (inactive) | > 100 µM (inactive) | > 100 µM (inactive) | > 100 µM (inactive) | > 100 µM (inactive) | > 100 µM (inactive) | > 100 µM (inactive) | 86.3 µM (inactive) | > 100 µM (inactive) | > 100 µM (inactive) | > 100 µM (inactive) | > 100 µM (inactive) | 70 µM (inactive) |  |
| COc1ccc(-n2c(N)c(C#N)c(C#N)c2-c2ccco2)cc1 |  | > 100 µM (inactive) | > 100 µM | 38.5 µM (inactive) | > 100 µM (inactive) | > 100 µM (inactive) | > 100 µM (inactive) | > 100 µM (inactive) | > 100 µM (inactive) | > 100 µM (inactive) | > 100 µM (inactive) | > 100 µM (inactive) | 11.9 µM (inactive) | > 100 µM (inactive) | 45.5 µM (inactive) | > 100 µM (inactive) | > 100 µM (inactive) | > 100 µM (inactive) | 39.7 µM (inactive) | > 100 µM (inactive) |
| NC(Cc1ccc(OCc2ccccc2)cn1)C(=O)O (configuration not stated) | > 100 µM (inactive) | > 100 µM (inactive) | > 100 µM |  | > 100 µM (inactive) |  | > 100 µM (inactive) | > 100 µM (inactive) | > 100 µM (inactive) | > 100 µM (inactive) | > 100 µM (inactive) | > 100 µM (inactive) |  | > 100 µM (inactive) | > 100 µM (inactive) | > 100 µM (inactive) | > 100 µM (inactive) | > 100 µM (inactive) | > 100 µM (inactive) | > 100 µM (inactive) |
| O=c1c2ncn(CCCl)c2n(-c2ccccc2)c(=S)n1-c1ccccc1 | > 100 µM (inactive) | > 100 µM (inactive) | > 100 µM | > 100 µM (inactive) | > 100 µM (inactive) | > 100 µM (inactive) | > 100 µM (inactive) | > 100 µM (inactive) | > 100 µM (inactive) | > 100 µM (inactive) | > 100 µM (inactive) | > 100 µM (inactive) |  | > 100 µM (inactive) | > 100 µM (inactive) | > 100 µM (inactive) | > 100 µM (inactive) | > 100 µM (inactive) | 69.5 µM (inactive) | > 100 µM (inactive) |
| OC1OC(c2ccco2)C(F)(F)C(F)(F)C1(F)F (configuration not stated) | > 100 µM (inactive) | > 100 µM (inactive) | 90.4 µM | > 100 µM (inactive) | > 100 µM (inactive) | > 100 µM (inactive) | > 100 µM (inactive) | > 100 µM (inactive) | 34.4 µM (inactive) | > 100 µM (inactive) | > 100 µM (inactive) | 82.6 µM (inactive) |  | > 100 µM (inactive) | > 100 µM (inactive) |  | > 100 µM (inactive) | > 100 µM (inactive) | 18.2 µM (inactive) |  |
| CCCCC1C(=O)N(c2ccc(S(=O)(=O)Nc3ccccn3)cc2)N(c2ccc(O)c(C(=O)O)c2)C1=O (configuration not stated) | > 100 µM (inactive) | > 100 µM (inactive) | > 100 µM | > 100 µM (inactive) | > 100 µM (inactive) | > 100 µM (inactive) | > 100 µM (inactive) | > 100 µM (inactive) | > 100 µM (inactive) | > 100 µM (inactive) | > 100 µM (inactive) | > 100 µM (inactive) | > 100 µM (inactive) | > 100 µM (inactive) | > 100 µM (inactive) | > 100 µM (inactive) |  | > 100 µM (inactive) | > 100 µM (inactive) | > 100 µM (inactive) |
| CCC(C#N)N(Cc1ccc(CN(C(=O)c2ccccc2)C(C#N)CC)cc1)C(=O)c1ccccc1 (configuration not stated) |  | 16.7 µM (inactive) | 22.2 µM | 12.1 µM (inactive) | 27.1 µM (inactive) | 36.6 µM (inactive) | 19.2 µM (inactive) | 17.6 µM (inactive) | 29.8 µM (inactive) | 18.8 µM (inactive) | 15.9 µM (inactive) | 14.7 µM (inactive) | 22.3 µM (inactive) | 18.6 µM (inactive) | 32.4 µM (inactive) | 24.3 µM (inactive) | 12.9 µM (inactive) | 32.5 µM (inactive) | 21.5 µM (inactive) | 25.7 µM (inactive) |
| N#CCCN(CCC#N)c1ccc(/C=C2\N=C(c3ccccc3)N(NC(N)=S)C2=O)cc1 | > 100 µM (inactive) | > 100 µM (inactive) | > 100 µM | > 100 µM (inactive) | > 100 µM (inactive) | > 100 µM (inactive) | > 100 µM (inactive) | > 100 µM (inactive) | > 100 µM (inactive) | > 100 µM (inactive) | > 100 µM (inactive) | > 100 µM (inactive) |  | > 100 µM (inactive) | > 100 µM (inactive) | > 100 µM (inactive) | > 100 µM (inactive) | > 100 µM (inactive) | > 100 µM (inactive) |  |
| O=c1[nH]c(=O)c2c([nH]1)[nH]c1ccc(Br)cc12 |  |  | 66.1 µM | > 100 µM (inactive) | > 100 µM (inactive) | > 100 µM (inactive) | 69 µM (inactive) | > 100 µM (inactive) | 70.6 µM (inactive) | > 100 µM (inactive) | > 100 µM (inactive) | > 100 µM (inactive) | 74.5 µM (inactive) | > 100 µM (inactive) | > 100 µM (inactive) | > 100 µM (inactive) | > 100 µM (inactive) | > 100 µM (inactive) | 45.3 µM (inactive) | > 100 µM (inactive) |
| CN1C(=O)N(C)C(O)C(Cl)(Br)C1=O (configuration not stated) | > 100 µM (inactive) | > 100 µM (inactive) | > 100 µM | > 100 µM (inactive) | > 100 µM (inactive) | > 100 µM (inactive) | > 100 µM (inactive) | > 100 µM (inactive) | > 100 µM (inactive) | > 100 µM (inactive) | > 100 µM (inactive) | > 100 µM (inactive) | > 100 µM (inactive) | > 100 µM (inactive) | > 100 µM (inactive) | > 100 µM (inactive) | > 100 µM (inactive) | > 100 µM (inactive) | > 100 µM (inactive) | > 100 µM (inactive) |
| C[C@]12CCC(=O)C=C1CC[C@@H]1C2CC[C@]2(C)Nc3c(ncn3-c3ccc(F)cc3)CC12 (some centres not stated) | 21.7 µM (inactive) | 29.2 µM (inactive) |  | 16.1 µM (inactive) | 41.3 µM (inactive) | 23.8 µM (inactive) | 18 µM (inactive) | 15 µM (inactive) | 3.2 µM (inactive) | 22.3 µM (inactive) |  | 15.7 µM (inactive) | 17.5 µM (inactive) | 11.7 µM (inactive) | 11.8 µM (inactive) | 46.2 µM (inactive) | 27.7 µM (inactive) | 49.2 µM (inactive) | 16.3 µM (inactive) | 23.1 µM (inactive) |
| CN(C)CC1CCC/C(=C\c2ccc(N(C)C)cc2)C1=O (configuration not stated) | 12 µM (inactive) | 2.84 µM (inactive) | 4.86 µM | 15.8 µM (inactive) | 16.1 µM (inactive) | 3.55 µM (inactive) | 1.02 µM (active) | 3.15 µM (inactive) | > 100 µM (inactive) | 17.1 µM (inactive) | 1.67 µM (inactive) | 2.58 µM (inactive) | 17 µM (inactive) | 15.3 µM (inactive) | 7.28 µM (inactive) | 1.8 µM (inactive) | 1.97 µM (inactive) | 18.2 µM (inactive) | 3.58 µM (inactive) | 15.1 µM (inactive) |
| CC(Cl)CN1c2ccccc2Sc2ccc(Cl)cc21 (configuration not stated) | > 10 µM (inactive) | > 10 µM (inactive) | > 10 µM | > 10 µM (inactive) | > 10 µM (inactive) | > 10 µM (inactive) | > 10 µM (inactive) | > 10 µM (inactive) | > 10 µM (inactive) | > 10 µM (inactive) | > 10 µM (inactive) | > 10 µM (inactive) | > 10 µM (inactive) | > 10 µM (inactive) | > 10 µM (inactive) | > 10 µM (inactive) | > 10 µM (inactive) | > 10 µM (inactive) | > 10 µM (inactive) | > 10 µM (inactive) |
| N/C(=N\O)N/N=C/c1cc(I)cc(I)c1O | 35.2 µM (inactive) | 2.2 µM (inactive) | 5.37 µM | 31.9 µM (inactive) | 28.8 µM (inactive) | 19 µM (inactive) | 10 µM (inactive) | 23.7 µM (inactive) | 13.2 µM (inactive) | > 100 µM (inactive) | 25.4 µM (inactive) | 27 µM (inactive) |  | 29.7 µM (inactive) | 82.6 µM (inactive) | 57.1 µM (inactive) | 57.7 µM (inactive) | 0.627 µM (active) | > 100 µM (inactive) | 28 µM (inactive) |
| CCOC(=O)c1csc(-c2cn(C)c3c2C(=O)C(OC)=CC3=O)n1 | 8.73 µM (inactive) | 5.82 µM (inactive) | 9.75 µM | 21.2 µM (inactive) | > 75.2 µM (inactive) | 14 µM (inactive) | 7.6 µM (inactive) | 18.3 µM (inactive) | 13 µM (inactive) | 24.3 µM (inactive) | 2.6 µM (inactive) | 26.9 µM (inactive) | 30.3 µM (inactive) | 27.6 µM (inactive) | 15.6 µM (inactive) | > 91.2 µM (inactive) | > 100 µM (inactive) | > 83 µM (inactive) | 21.2 µM (inactive) | 11.3 µM (inactive) |
